For six compounds, IC50 results are on record in ChEMBL document CHEMBL4680258, “Synthesis, characterization and carbonic anhydrase I and II inhibitory evaluation of new sulfonamide derivatives bearing dithiocarbamate” (Eur J Med Chem, 2020).

The test system of this experiment is NIH3T3. Description: Cytotoxicity against mouse NIH/3T3 cells assessed as reduction in cell viability incubated for 24 hrs by MTT assay. It is filed as cell-based. The following applies: NIH3T3, 24 h.
Usually IC50 stands for the concentration that gives 50% inhibition. As to `CN(C)CCCN1CCN(C(=S)SCC(=O)Nc2ccc(S(N)(=O)=O)cc2)CC1`, the IC50 was over 1000 µM.

Consider `CN1CCN(C(=S)SCC(=O)Nc2ccc(S(N)(=O)=O)cc2)CC1`, for which the IC50 turned out to be 14.5 µM. As for `NS(=O)(=O)c1ccc(NC(=O)CSC(=S)N2CCN(c3ncccn3)CC2)cc1`, the figure is 16.5 µM. Regarding `CN(C)CCN1CCN(C(=S)SCC(=O)Nc2ccc(S(N)(=O)=O)cc2)CC1`, the IC50 is over 1000 µM.

For `Cc1ccc(CN2CCN(C(=S)SCC(=O)Nc3ccc(S(N)(=O)=O)cc3)CC2)cc1`, the IC50 came out at 58.1 µM. As for `NS(=O)(=O)c1ccc(NC(=O)CSC(=S)N2CCN(c3ccccn3)CC2)cc1`, the figure is 18.5 µM.
